Experimental data from paper PMC12627933, “A First-In-Human Study of the SUMOylation Inhibitor Subasumstat in Patients with Advanced/Metastatic Solid Tumors or Relapsed/Refractory Hematologic Malignancies” (Cancer Research Communications, 2025).
Read-outs that look alike come from different tables or passages of the source.

How the values were obtained:
[1] = system: advanced/metastatic solid tumors and relapsed/refractory hematologic malignancies; assay: Clinical activity (RECIST v1.1 / Lugano criteria); format: in vivo, human; conditions: for DCR: 95% CI; for Patients with best response of SD: 90 mg twice weekly
Method: Disease response and progression were assessed for up to 48 months using CT and/or MRI scans with intravenous contrast and ^18fluorodeoxyglucose-PET imaging according to RECIST v1.1 criteria for solid tumors or Lugano criteria for lymphoma response ([21]).
It was anticipated that approximately 70 DLT-evaluable patients would be enrolled for dose escalation. The safety analysis set included all patients who received at least one dose, even if incomplete, of subasumstat. The tumor response–evaluable set included patients who received at least one dose of subasumstat, had sites of measurable disease at baseline and one post-baseline disease assessment, or discontinued treatment because of symptomatic deterioration or death prior to post-baseline evaluation. The overall response rate (ORR) was defined as the proportion of patients who achieved complete response and partial response (PR) during the study. The disease control rate (DCR) was defined as the proportion of patients who achieved […] as per RECIST v1.1 for solid tumors or Lugano classification for lymphomas. Both ORR and DCR were estimated with two-sided 95% exact binomial confidence intervals (CI). Progression-free survival was summarized descriptively using the Kaplan–Meier method.

macrophages and NK cells = system: macrophages and NK cells; set-up: method as in PMID 35226739; conditions: IFNI-dependent innate immune activation; cited from earlier work
SUMO2/3 conjugates = assay: SUMOylation pathway inhibition: decrease in SUMO2/3 conjugates in blood lymphocytes, skin and tumor; format: in vivo, human
Method: Blood samples for subasumstat–SUMO adduct formation and SUMO2/3 inhibition assessments were collected before dose and at 1, 4, and 8 hours after the infusion on C1D1 and C1D8. Blood samples for additional biomarker analyses were collected before dose on C1D1 and C1D8 and at 4, 8, and 24 hours after infusion on C1D1 and C1D8. Skin biopsies (used as surrogate tissue for solid tumors) were collected at screening and on C1D8 at 2 hours (±30 minutes) after end of infusion, and tumor biopsies were collected at screening and cycle 2 day 8 (C2D8; +7 days; whenever possible). In blood samples, a custom flow cytometry assay was utilized for detecting target engagement and SUMOylated protein levels in lymphocytes (including T-, B-, and NK-cell subsets). The assay included a PE-conjugated antibody specifically recognizing the SUMO–subasumstat adduct (MIL-113, anti–cysteinyl-TAK-981, Epitomics; refs. [14], [15], [22]) and an AF488-conjugated antibody recognizing SUMO2/3 conjugates (MBL International, cat. #M114-3, RRID: AB_592769). Peripheral blood cells were lysed/fixed, permeabilized (BD Biosciences), and stained with MIL-113 and M114-3 and with antibodies against CD45, CD3, CD19, CD16/CD56, and CD14. IHC assays for SUMO–subasumstat adduct and SUMO2/3 inhibition in skin biopsies and tumors were performed using MIL-113 and M114-3 antibodies. Activation of the IFNI pathway was assessed in peripheral blood by analysis of gene expression data (PanCancer IO 360 panel by NanoString for phase I and whole-transcriptome RNA sequencing data for phase II). Type I IFN gene signature was computed using geometric mean of the following genes: CCL2, CXCL10, DDX58, IRF7, ISG15, STAT1, and STAT2. These seven IFNI-regulated genes were selected prior to the trial, based on in vitro studies of the effect of subasumstat on human blood from 10 healthy donors analyzed on the NanoString PanCancer IO 360 panel. Plasma chemokines and cytokines were measured using the MesoScale Discovery platform (pro-inflammatory and chemokine panels, BioAgilytix). For assessment of NK- and T-cell activation, cells were suspended in buffer and incubated with the following monoclonal antibodies: APC-H7 mouse anti–human CD45 (BD Biosciences, cat. #560274), APC mouse anti–human CD69 (BD Biosciences, cat. #555533), BV421 mouse anti–human CD56 (BD Biosciences, cat. #562751), mouse anti–human CD16 PerCP-Cy5.5 (BD Biosciences, cat. #338440), BV510 mouse anti–human CD4 (BD Biosciences, cat. #563094), BV605 mouse anti–human CD8 (BD Biosciences, cat. #564116), and Alexa Fluor 700 anti–mouse CD3 antibody (BioLegend, cat. #100215), prior to assessment by flow cytometry using the BD Scientific FACSCanto flow cytometer (RRID: SCR_018055). Tumor PD-L1 expression level was assessed in paired tumor biopsies using the 22C3 PD-L1 IHC assay; combined positive score (CPS) was calculated for baseline and on-treatment tumor samples. The immune landscape in the tumor microenvironment (TME) was assessed using an integrated RNAscope and 27-marker MultiOmyx immunofluorescence panel.

[2] = Pharmacokinetics after 1-hour intravenous infusion (non-compartmental); format: in vivo, human; conditions: for half-life: across all dose levels, read-out: Terminal disposition phase half-life
Method: Subasumstat PK were evaluated after the first dose on C1D1 and cycle 1 day 8 (C1D8). The parameters included maximum observed plasma concentration (Cmax), time to first occurrence of Cmax, area under the plasma concentration–time curve from time 0 to the last measurable concentration (AUC0–t) or from time 0 extrapolated to time infinity (AUC0–∞), terminal disposition phase half-life, total clearance, and volume of distribution at steady state. PK parameters were estimated from concentration–time profiles for the PK analysis set, using non-compartmental methods, with Phoenix WinNonlin (RRID: SCR_024504).

[3] = system: lymphoma and pancreatic cancer xenografts; set-up: method as in PMID 33631934; conditions: cited from earlier work
relapsed/refractory NHL = system: relapsed/refractory NHL; set-up: method as in ref 19 = [19]; 19. Assouline S , Mehta A , Phillips T , Alinari L , Danilov AV , Doucet S , . TAK-981, a first-in-class SUMO-activating enzyme inhibitor, combined with rituximab in adult patients (Pts) with CD20-pos; conditions: in combination with rituximab; 24 patients with relapsed/refractory NHL; cited from earlier work
[4] = system: tumor microenvironment (TME); set-up: method as in PMID 37389981; conditions: intratumor microdosing; cited from earlier work
[5] = phase II NSCLC expansion cohort
[6] = phase II cervical cancer expansion cohort

Structure (SMILES): Cc1sc(C(=O)c2cncnc2N[C@@H]2C[C@H](COS(N)(=O)=O)[C@@H](O)C2)cc1[C@@H]1NCCc2ccc(Cl)cc21 [subasumstat]
- Patients with confirmed PR ([1]; 99 response-evaluable patients, both phases, 40, 90 and 120 mg twice weekly): three
- Patients with confirmed PR ([1]; overall): 3%
- Best response of SD ([1]; overall, 26 patients): 26.3%
- DCR ([1]; overall, n = 29/99, 20.57–39.29): 29.3%
- DCR ([1]; phase I, n = 21/75, 18.24–39.56): 28%
- Median progression-free survival [1, 5]: 6.06 months
- Patients with best response of SD [1, 5]: four of seven
- Median progression-free survival [1, 6]: 3.78 months
- Patients with best response of SD [1, 6]: two of three
- DCR ([1]; phase II, n = 8/24, 15.63–55.32): 33%
- Killing of tumor cell targets (macrophages and NK cells): enhanced killing of tumor cell targets
- Duration of SUMO2/3 inhibition (SUMO2/3 conjugates; peripheral blood lymphocytes): at least 8 hours
- Time to SUMO2/3 inhibition after end of infusion (SUMO2/3 conjugates; peripheral blood lymphocytes): ≤ 1 h
- Dose from which SUMO2/3 inhibition was observed (SUMO2/3 conjugates; peripheral blood lymphocytes, dose-dependent): ≥ 40 mg
- SUMO2/3 inhibition in tumor samples (SUMO2/3 conjugates; post-dose tumor samples, except two MSS colorectal cancer and one NSCLC patient): observed in most post-dose samples
- Dose from which reduced SUMO2/3 levels were observed in skin (SUMO2/3 conjugates; skin biopsies on C1D8): ≥ 60 mg
- Time of maximum plasma and blood concentrations ([2]; after dose (end of infusion), intravenous, C1D1 and C1D8, phase I): approximately 1 hour
- Increase of Cmax, AUC0–t and AUC0–∞ with dose ([2]; dose range 3 to 120 mg, C1D1 and C1D8): approximately dose-proportional
- half-life ([2]; human, intravenous, plasma): 3.35 to 9.31 h
- clearance ([2]; human, intravenous, stated as lower in blood compared with plasma, matrix of the range not stated explicitly): 38.2 to 76 mL/min
- Vd ([2]; human, intravenous, stated as lower in blood compared with plasma, matrix of the range not stated explicitly, read-out: Volume of distribution at steady state): 13.7 to 38.8 L
- half-life ([2]; human, whole blood, intravenous, blood): 2.87 to 9.19 h
- Accumulation in plasma after multiple administrations ([2]; phase II, 90 mg twice weekly, C1D4, C1D8, C2D1, C2D8 vs C1D1): no apparent accumulation
- Antitumor activity ([3]; immunocompromised mice): shows antitumor activity
- SUMOylation in tumors ([3]; xenograft models): inhibits SUMOylation in tumors
- ORR (relapsed/refractory NHL): 29%
- Modulation of the TME [4]: modulate the TME from an immune-suppressive to an immune-permissive status
